In US9693556B2, “Herbicidal pyridazinone derivatives” (SYNGENTA LIMITED, priority 2011, dated 2017):

Legend:
Assay type in all cases: in vivo
Solanum nigrum (SOLNI) [1] = experiment: Pre-emergence herbicidal glasshouse test on Solanum nigrum; conditions: pre-emergence; 1000 g/h; evaluated after 13 days
How it was run: (§1)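 Scoring scale: 5=80-100%, 4=60-79%, 3=40-59%, 2=20-39%, 1=0-19% damage, assessed on day 13. Compound sprayed at 1000 g/h on soil-grown plants (day 1 pre-, day 8 post-emergence) kept at 24/16 °C, 14 h light.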

[2] = test system: Echinochloa crus-galli (ECHCG); experiment: Post-emergence herbicidal glasshouse test on Echinochloa crus-galli; conditions: post-emergence; 1000 g/h; evaluated after 13 days
How it was run: as §1

[3] = test system: Ipomoea hederacea (IPOHE); experiment: Post-emergence herbicidal glasshouse test on Ipomoea hederacea; conditions: post-emergence; 1000 g/h; evaluated after 13 days
How it was run: as §1

Setaria faberi (SETFA) [4] = experiment: Post-emergence herbicidal glasshouse test on Setaria faberi; conditions: post-emergence; 1000 g/h; evaluated after 13 days
How it was run: as §1

Solanum nigrum (SOLNI) [5] = experiment: Post-emergence herbicidal glasshouse test on Solanum nigrum; conditions: post-emergence; 1000 g/h; evaluated after 13 days
How it was run: as §1

[6] = test system: Amaranthus retoflexus (AMARE); experiment: Post-emergence herbicidal glasshouse test on Amaranthus retoflexus; conditions: post-emergence; 1000 g/h; evaluated after 13 days
How it was run: as §1

[7] = test system: Alopecurus myosuroides (ALOMY); experiment: Post-emergence herbicidal glasshouse test on Alopecurus myosuroides; conditions: post-emergence; 1000 g/h; evaluated after 13 days
How it was run: as §1

[8] = test system: Echinochloa crus-galli (ECHCG); experiment: Pre-emergence herbicidal glasshouse test on Echinochloa crus-galli; conditions: pre-emergence; 1000 g/h; evaluated after 13 days
How it was run: as §1

Setaria faberi (SETFA) [9] = experiment: Pre-emergence herbicidal glasshouse test on Setaria faberi; conditions: pre-emergence; 1000 g/h; evaluated after 13 days
How it was run: as §1

[10] = test system: Alopecurus myosuroides (ALOMY); experiment: Pre-emergence herbicidal glasshouse test on Alopecurus myosuroides; conditions: pre-emergence; 1000 g/h; evaluated after 13 days
How it was run: as §1

[11] = test system: Amaranthus retoflexus (AMARE); experiment: Pre-emergence herbicidal glasshouse test on Amaranthus retoflexus; conditions: pre-emergence; 1000 g/h; evaluated after 13 days
How it was run: as §1

[12] = test system: Ipomoea hederacea (IPOHE); experiment: Pre-emergence herbicidal glasshouse test on Ipomoea hederacea; conditions: pre-emergence; 1000 g/h; evaluated after 13 days
How it was run: as §1

Structure (SMILES) | PRE Application SOLNI herbicidal damage (five point scale) (Solanum nigrum (SOLNI) [1]) | POST Application ECHCG herbicidal damage (five point scale) [2] | POST Application IPOHE herbicidal damage (five point scale) [3] | POST Application SETFA herbicidal damage (five point scale) (Setaria faberi (SETFA) [4]) | POST Application SOLNI herbicidal damage (five point scale) (Solanum nigrum (SOLNI) [5]) | POST Application AMARE herbicidal damage (five point scale) [6] | POST Application ALOMY herbicidal damage (five point scale) [7] | PRE Application ECHCG herbicidal damage (five point scale) [8] | PRE Application SETFA herbicidal damage (five point scale) (Setaria faberi (SETFA) [9]) | PRE Application ALOMY herbicidal damage (five point scale) [10] | PRE Application AMARE herbicidal damage (five point scale) [11] | PRE Application IPOHE herbicidal damage (five point scale) [12]
Cn1ncc(-c2ccc(C(F)(F)F)nc2N2CCOCC2)c(O)c1=O [Compound 1.075] | 5 (5=80-100% damage) | 5 (5=80-100% damage) | 5 (5=80-100% damage) | 2 (2=20-39% damage) | 5 (5=80-100% damage) | 5 (5=80-100% damage) | 3 (3=40-59% damage) | 5 (5=80-100% damage) | 1 (1=0-19% damage) | 1 (1=0-19% damage) | 5 (5=80-100% damage) | 2 (2=20-39% damage)
Cn1ncc(-c2ccc(C(F)(F)F)cc2Cl)c(O)c1=O [Compound 1.076] | 2 (2=20-39% damage) | 2 (2=20-39% damage) | 4 (4=60-79% damage) | 1 (1=0-19% damage) | 4 (4=60-79% damage) | 5 (5=80-100% damage) | 2 (2=20-39% damage) | 1 (1=0-19% damage) | 1 (1=0-19% damage) | 1 (1=0-19% damage) | 5 (5=80-100% damage) | 1 (1=0-19% damage)
Cn1ncc(-c2ccc(Cl)cc2Cl)c(O)c1=O [Compound 1.077] | 3 (3=40-59% damage) | 1 (1=0-19% damage) | 2 (2=20-39% damage) | 1 (1=0-19% damage) | 2 (2=20-39% damage) | 4 (4=60-79% damage) | 1 (1=0-19% damage) | 1 (1=0-19% damage) | 1 (1=0-19% damage) | 1 (1=0-19% damage) | 3 (3=40-59% damage) | 1 (1=0-19% damage)
Cn1ncc(-n2ccc(C(F)(F)F)cc2=O)c(O)c1=O [Compound 1.078] | 5 (5=80-100% damage) | 5 (5=80-100% damage) | 4 (4=60-79% damage) | 5 (5=80-100% damage) | 5 (5=80-100% damage) | 5 (5=80-100% damage) | 1 (1=0-19% damage) | 5 (5=80-100% damage) | 5 (5=80-100% damage) | 2 (2=20-39% damage) | 5 (5=80-100% damage) | 2 (2=20-39% damage)
Cn1ncc(-c2ccc(Br)cc2S(C)(=O)=O)c(O)c1=O [Compound 1.081] | 5 (5=80-100% damage) | 5 (5=80-100% damage) | 5 (5=80-100% damage) | 5 (5=80-100% damage) | 5 (5=80-100% damage) | 5 (5=80-100% damage) | 5 (5=80-100% damage) | 5 (5=80-100% damage) | 5 (5=80-100% damage) | 5 (5=80-100% damage) | 5 (5=80-100% damage) | 2 (2=20-39% damage)
Cc1cc(Cl)ccc1-c1cnn(C)c(=O)c1O [Compound 1.082] | 1 (1=0-19% damage) | 1 (1=0-19% damage) | 2 (2=20-39% damage) | 1 (1=0-19% damage) | 4 (4=60-79% damage) | 2 (2=20-39% damage) | 1 (1=0-19% damage) | 1 (1=0-19% damage) | 1 (1=0-19% damage) | 1 (1=0-19% damage) | 1 (1=0-19% damage) | 1 (1=0-19% damage)
Cc1cc(C#N)ccc1-c1cnn(C)c(=O)c1O [Compound 1.084] | 1 (1=0-19% damage) | 3 (3=40-59% damage) | 4 (4=60-79% damage) | 2 (2=20-39% damage) | 4 (4=60-79% damage) | 4 (4=60-79% damage) | 1 (1=0-19% damage) | 1 (1=0-19% damage) | 1 (1=0-19% damage) | 1 (1=0-19% damage) | 1 (1=0-19% damage) | 1 (1=0-19% damage)
Cn1ncc(-c2cc(F)ccc2Cl)c(O)c1=O [Compound 1.086] | 1 (1=0-19% damage) | 1 (1=0-19% damage) | 1 (1=0-19% damage) | 1 (1=0-19% damage) | 1 (1=0-19% damage) | 1 (1=0-19% damage) | 1 (1=0-19% damage) | 1 (1=0-19% damage) | 1 (1=0-19% damage) | 1 (1=0-19% damage) | 1 (1=0-19% damage) | 1 (1=0-19% damage)
Cn1ncc(-c2cc(Cl)c(Cl)cc2Cl)c(O)c1=O [Compound 1.089] | 1 (1=0-19% damage) | 1 (1=0-19% damage) | 1 (1=0-19% damage) | 1 (1=0-19% damage) | 1 (1=0-19% damage) | 1 (1=0-19% damage) | 1 (1=0-19% damage) | 1 (1=0-19% damage) | 1 (1=0-19% damage) | 1 (1=0-19% damage) | 1 (1=0-19% damage) | 1 (1=0-19% damage)
COc1ccc(Cl)c(-c2cnn(C)c(=O)c2O)c1 [Compound 1.090] | 1 (1=0-19% damage) | 1 (1=0-19% damage) | 1 (1=0-19% damage) | 1 (1=0-19% damage) | 2 (2=20-39% damage) | 1 (1=0-19% damage) | 1 (1=0-19% damage) | 1 (1=0-19% damage) | 1 (1=0-19% damage) | 1 (1=0-19% damage) | 1 (1=0-19% damage) | 1 (1=0-19% damage)
Cn1ncc(-c2ccc(Cl)c(Cl)c2Cl)c(O)c1=O [Compound 1.091] | 1 (1=0-19% damage) | 1 (1=0-19% damage) | 1 (1=0-19% damage) | 1 (1=0-19% damage) | 2 (2=20-39% damage) | 1 (1=0-19% damage) | 1 (1=0-19% damage) | 1 (1=0-19% damage) | 1 (1=0-19% damage) | 1 (1=0-19% damage) | 1 (1=0-19% damage) | 1 (1=0-19% damage)
